What is called inhibition is the share of the control response that was lost under treatment.

Molecules are shown by their SMILES.

The test addresses Krueppel-like factor 5 (Homo sapiens) (UniProt Q13887). In words: KLF5 protein abundance by immunoblot – western blot, chemiluminescence, DLD-1 cells, counter-screen for KLF5 inhibitor project, late-stage follow-up (AID 588617). The settings on record: 24 h, at 10 µM, hits give high values. (Immunoblotting shows a protein as a band on a membrane.)

Chain of Krueppel-like factor 5 (Homo sapiens) (Q13887 whole entry, looked up): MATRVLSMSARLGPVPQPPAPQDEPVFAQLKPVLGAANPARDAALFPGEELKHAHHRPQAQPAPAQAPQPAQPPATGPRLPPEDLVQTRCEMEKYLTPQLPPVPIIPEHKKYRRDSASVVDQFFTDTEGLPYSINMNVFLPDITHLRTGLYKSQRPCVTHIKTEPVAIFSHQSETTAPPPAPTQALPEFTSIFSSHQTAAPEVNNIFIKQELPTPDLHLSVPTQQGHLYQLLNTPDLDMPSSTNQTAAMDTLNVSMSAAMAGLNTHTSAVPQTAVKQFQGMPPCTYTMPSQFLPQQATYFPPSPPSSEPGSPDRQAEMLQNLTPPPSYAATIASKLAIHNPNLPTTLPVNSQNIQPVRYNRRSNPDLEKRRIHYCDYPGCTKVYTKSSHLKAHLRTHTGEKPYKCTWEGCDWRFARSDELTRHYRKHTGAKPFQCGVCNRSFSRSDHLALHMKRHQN

In the case of `CN(C(=O)COC(=O)/C=C/c1cccc([N+](=O)[O-])c1)C1CCS(=O)(=O)C1` (stereo unspecified), the inhibition was 30.1%.

Source of the values: PubChem BioAssay AID588617 (The Scripps Research Institute Molecular Screening Center, 2011).
